Here are results for twelve compounds from PMC2201222 (The Journal of General Physiology, 1968).

The nature of data set [1]: Activity toward Na+-K+ transport across sheep red cell and thin lipid membranes. The note with it: for selectivity for K+ over Na+ (section heading of Table II): sheep red cells and thin lipid membranes.
The format of data set [2] is physicochemical. The note with it: read-out by bilayer resistance.
For data set [3] the following is noted: general statement, no method or reference given; cited from earlier work.
The nature of data set [4]: Electrical resistance and potential of thin lipid. Set-up: species or system sheep. The note with it: about 22C, unbuffered pH 5.6.

Bounds are passed on as bounds.

Turning to Viridogrisein, the “activity on cation selectivity (section heading of Table II)” value (from here on “activity on cation selectivity”) in data set [1] (maximum conc. tested 10^-6 M) is given as “Inactive”.
As to `CC(C)[C@@H]1NC(=O)[C@H](C)OC(=O)[C@@H](C(C)C)NC(=O)[C@@H](C(C)C)OC(=O)[C@H](C(C)C)NC(=O)[C@H](C)OC(=O)[C@@H](C(C)C)NC(=O)[C@@H](C(C)C)OC(=O)[C@H](C(C)C)NC(=O)[C@H](C)OC(=O)[C@@H](C(C)C)NC(=O)[C@@H](C(C)C)OC1=O` [Valinomycin, valinomycin], the “Partition coefficient between decane and NaCl (0.1 M), compared with KCl (0.1 M)” value in data set [2] (aqueous phase NaCl (0.1 M)) is “the same”. Further, the “Partition coefficient between decane and pure H2O, compared with KCl (0.1 M)” value in data set [2] (aqueous phase pure H2O) was “the same”. Further, in data set [3], the solubility in water result is listed as “almost insoluble”.
As for `CO[C@@H]1C[C@@H](C[C@H]2CC[C@H](C)[C@H]([C@@H](C)C(=O)O)O2)O[C@]2(O[C@](C)([C@H]3CC[C@@](C)([C@@H]4O[C@@H]([C@H]5O[C@@](O)(CO)[C@H](C)C[C@@H]5C)C[C@@H]4C)O3)C[C@H]2C)[C@@H]1C` [Nigericin], in data set [4] (compound 10^-6 M), the “Bilayers, TNa/TK (ratio of the transference number for Na+ to that for K+)” value is recorded as less than 0.I. Further, the “selectivity for K+ over Na+ (section heading of Table II)” value (from here on “selectivity for K+ over Na+”) in data set [1] is “moderate to low selectivity”.
As to Phalloidin, the “activity on cation selectivity” value in data set [1] (maximum conc. tested 10^-4 M) is given as “Inactive”.
Consider `C=C1NC(=O)CC[C@@H](C(=O)O)NC(=O)[C@H](NC(=O)[C@H](CCCCN)NC(=O)[C@@H](N)Cc2c[nH]c3ccccc23)CSC[C@@H](C(=O)N[C@@H]2C(=O)N3CCC[C@H]3C(=O)NCC(=O)N[C@H](C(=O)N[C@H](C(=O)N[C@@H]3C(=O)NCC(=O)N[C@@H](C)C(=O)N[C@@H](CC(C)C)C(=O)N[C@@H](CCC(N)=O)C(=O)N/C(=C/C)C(=O)N[C@H](C(=O)N[C@@H](Cc4ccccc4)C(=O)N[C@@H](CC(C)C)C(=O)N[C@@H](CCC(N)=O)C(=O)N[C@@H]4C(=O)N[C@@H](CC(C)C)C(=O)N[C@H]5C(=O)N[C@@H](CSC4C)C(=O)NC(=O)[C@H](CC(N)=O)N[C@H](C(=O)N[C@@H](CCCCN)C(=O)N[C@H](C(=O)NC(=C)C(=O)N[C@@H](CCCCN)C(=O)O)[C@@H](C)CC)CSC5C)CSC3C)C(C)C)CSC2C)N[C@@H](CC(C)C)C(=O)NC1=O` (some centres unmarked) [Subtilin], for which the “activity on cation selectivity” value in data set [1] (maximum conc. tested 10^-6 M) is given as “Inactive”.
As for Gramicidin C, in data set [1], the “selectivity for K+ over Na+” value was “moderate to low selectivity”.
With Bacitracin A, the “activity on cation selectivity” value in data set [1] (maximum conc. tested 10^-6 M) is given as “Inactive”.
Regarding Polymixin B, the “activity on cation selectivity” value in data set [1] (maximum conc. tested 10^-5 M) was “Inactive”.
In the case of Gramicidin A, in data set [1], the “selectivity for K+ over Na+” value was “moderate to low selectivity”.
On to Vernamycin, for which the “activity on cation selectivity” value in data set [1] (maximum conc. tested 10^-5 M) is on record as “Inactive”.
In the case of Gramicidin B, the “Bilayers, TNa/TK (ratio of the transference number for Na+ to that for K+)” value in data set [4] (compound 10^-6 M) is reported as 0.4. The “selectivity for K+ over Na+” value in data set [1] is given as “moderate to low selectivity”.
Consider `C[C@@H]1C[C@H]2CC[C@H](O2)[C@H](C)C(=O)O[C@@H](C)C[C@@H]2CC[C@@H](O2)[C@@H](C)C(=O)O[C@H](C)C[C@H]2CC[C@H](O2)[C@H](C)C(=O)O[C@@H](C)C[C@@H]2CC[C@@H](O2)[C@@H](C)C(=O)O1` [Nonactin, nonactin], for which, in data set [4] (compound 10^-7 M), the “Bilayers, TNa/TK (ratio of the transference number for Na+ to that for K+)” value was less than 0.01. In addition, the “selectivity for K+ over Na+” value in data set [1] is “high selectivity”.
